Source: patent US20030125234A1, “Alteration of protein stability” (priority 2001, published 2003)
Residues, ends and D or L forms follow the SMILES beside them.

Experiments:
Format in all cases: biochemical
[1] = molecular target: T1, porcine somatotropin (pST) (Sus scrofa, UniProt P01248); assay: Porcine somatotropin aggregation (turbidity at 360 nm) with PEG 8000; settings: pST 1.27 mg/mL, 60° C., standard deviation in parenthesis
T1 construct: purchased Pfizer, Inc., Groton, Conn., USA (provided, not bought)
T1 sequence (P01248 27-216): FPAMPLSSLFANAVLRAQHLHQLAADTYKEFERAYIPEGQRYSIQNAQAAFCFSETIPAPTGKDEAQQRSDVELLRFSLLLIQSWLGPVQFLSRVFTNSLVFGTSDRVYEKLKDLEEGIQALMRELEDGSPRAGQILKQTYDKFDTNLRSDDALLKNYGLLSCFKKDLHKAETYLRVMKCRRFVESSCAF
Method in brief: (§1)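 Aggregation is scored as optical density at 360 nm over 1 h relative to untreated protein. Porcine somatotropin (1.27 mg/mL) is heated to 60° C in PEG 8000 (20 mg/mL); ADH (1 mg/mL) is oxidized with 7.76E-5 M Cu(OP)2 at 37° C; lysozyme and HLF (0.4 mg/mL) are reduced with 1.27E-4 M DTT at 25° C and 43° C.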

[2] = molecular target: T2, human apolactoferrin (HLF) (Homo sapiens, UniProt P02788); assay: HLF aggregation (turbidity at 360 nm) induced by DTT; settings: HLF 0.4 mg/mL, 43° C., DTT, head 10,000×, standard deviation in parenthesis
T2 construct: purchased Sigma
Method in brief: as §1

[3] = molecular target: human acidic fibroblast growth factor (FGF-1) (Homo sapiens, UniProt P05230); assay: FGF-1 thermal aggregation (turbidity at 360 nm); settings: FGF-1 50 μg/mL, 50° C., standard deviation in parenthesis
Method in brief: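 Heat-induced aggregation followed as OD360 for 1 h, cycled every 30 s: citrate synthase 96 μg/mL in HEPES/KCl/(NH4)2SO4 buffer pH 7.8 at 45° C; FGF-1 50 μg/mL in phosphate/NaCl pH 7.2 at 50° C. Rate taken as maximum slope of OD versus time, compared with protein without additive.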

[4] = molecular target: T3, Bovine insulin (Bos taurus, UniProt P01317); assay: Insulin aggregation (turbidity at 360 nm) induced by DTT; settings: Insulin 0.25 mg/mL, 25° C., DTT; compound 100×; standard deviation in parenthesis
T3 construct: purchased Sigma, St. Louis, Mo., USA
Method in brief: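 Bovine insulin was dissolved in pH 7.0 PBS (50 mM sodium biphosphate, 100 mM sodium chloride) at 0.25 mg/mL (4.39E-5 M). Test compounds were added, then aggregation was induced with 20 μL of 1 M DTT […]. Turbidity at 360 nm was followed for 1 hour at 25° C. and compared with insulin lacking the compound.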

[5] = molecular target: T4, chicken egg white lysozyme (Gallus gallus, UniProt P00698); assay: Lysozyme aggregation (turbidity at 360 nm) induced by DTT; settings: Lysozyme 0.4 mg/mL, 25° C., DTT; compound 1,000×; standard deviation in parenthesis
T4 construct: chicken egg white lysozyme [Sigma]; purchased Sigma; host or cells: egg white
Method in brief: as §1

T3 sequence (P01317 25-54 limits assumed): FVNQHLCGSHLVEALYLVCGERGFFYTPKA
T3 sequence (P01317 85-105 limits assumed): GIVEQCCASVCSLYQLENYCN
human acidic fibroblast growth factor (FGF-1), sequence (P05230 whole entry): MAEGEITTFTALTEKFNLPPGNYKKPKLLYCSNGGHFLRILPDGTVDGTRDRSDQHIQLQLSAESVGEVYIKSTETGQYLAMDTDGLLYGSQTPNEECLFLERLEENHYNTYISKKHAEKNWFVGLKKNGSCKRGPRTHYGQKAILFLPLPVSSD
T2 sequence (P02788 20-710): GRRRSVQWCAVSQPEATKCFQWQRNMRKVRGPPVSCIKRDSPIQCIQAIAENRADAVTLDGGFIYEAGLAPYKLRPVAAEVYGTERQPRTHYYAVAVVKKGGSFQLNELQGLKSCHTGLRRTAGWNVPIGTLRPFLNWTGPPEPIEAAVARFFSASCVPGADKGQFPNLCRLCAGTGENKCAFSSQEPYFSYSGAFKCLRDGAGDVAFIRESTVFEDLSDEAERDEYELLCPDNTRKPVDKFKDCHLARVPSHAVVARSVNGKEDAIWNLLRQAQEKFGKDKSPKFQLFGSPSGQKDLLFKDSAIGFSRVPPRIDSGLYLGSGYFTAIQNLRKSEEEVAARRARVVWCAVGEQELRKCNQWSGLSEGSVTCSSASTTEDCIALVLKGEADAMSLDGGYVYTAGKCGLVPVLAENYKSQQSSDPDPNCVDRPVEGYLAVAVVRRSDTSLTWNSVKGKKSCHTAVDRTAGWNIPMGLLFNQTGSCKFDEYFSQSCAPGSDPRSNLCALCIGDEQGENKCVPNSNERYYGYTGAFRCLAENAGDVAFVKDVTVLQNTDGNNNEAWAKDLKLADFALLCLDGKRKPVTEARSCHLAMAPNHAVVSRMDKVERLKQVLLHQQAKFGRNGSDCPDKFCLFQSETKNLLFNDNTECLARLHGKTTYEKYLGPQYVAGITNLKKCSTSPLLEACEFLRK
T4 sequence (P00698 19-147): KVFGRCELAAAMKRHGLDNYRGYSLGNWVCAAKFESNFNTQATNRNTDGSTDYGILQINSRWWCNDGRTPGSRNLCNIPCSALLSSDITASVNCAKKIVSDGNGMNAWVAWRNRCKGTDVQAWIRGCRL

Compound | inhibition index ([1]; compound 100X) | inhibition index ([1]; compound 2,000X) | inhibition index ([2]; second HLF column) | inhibition index ([3]; compound 1,000×) | inhibition index ([3]; compound 10,000×) | inhibition index [4] | inhibition index [5] | inhibition index ([2]; first HLF column)
O=C(O)CCCCCCC(=O)O [suberate, suberic acid] | 0.7 (0.0) | 1.7 (0.3) | 95.4 (34.6) | 2.3 (0.5) | 7.1 (5.4) | 1.6 (0.3) | 1.4 (0.2) | 
O=C(O)CCC(=O)O [succinate, succinic acid] | 0.9 (0.1) | 2.1 (0.3) | 33.7 (11.9) | 2.1 (0.4) | 9.2 (1.9) | 1.0 (0.3) | 1.0 (0.3) | 
NCC(=O)NCC(=O)NCC(=O)O [triglycine] (H-Gly-Gly-Gly-OH) | 0.7 (0.0) | 2.5 (0.3) | 5.7 (4.0) | 2.2 (1.1) | 3.1 (0.9) | 1.4 (0.1) | 1.6 (0.3) | 0.2 (0.1)
Glu-Glu | 0.6 (0.1) |  | 2.1 | 1.3 (0.2) | 7.1 (2.7) | 1.0 (0.1) | 1.2 (0.7) | 9.8 (0.8)
Lys-Lys | 0.9 (0.1) |  | 11.2 | 1.1 (0.1) | 3.1 (0.8) | 1.1 (0.1) | 1.3 (0.1) | 13.5 (1.2)
diglycine | 1.9 (0.3) |  | 10.0 | 1.0 (0.1) | 1.2 (0.4) | 1.0 (0.2) | 0.9 (0.0) | 7.4 (1.0)
tetraglycine | 0.8 (0.1) | 3.4 (0.6) | 0.1 | 3.8 (0.8) |  | 1.5 (0.3) | 2.1 (0.5) | 8.3 (9.5)
